Source: ChEMBL document CHEMBL3758163, “Extended structure-activity study of thienopyrimidine-based EGFR inhibitors with evaluation of drug-like properties” (Eur J Med Chem, 2016)
≈ marks a conversion by molar mass, not a printed value.

Tests used:
[1] = target: Epidermal growth factor receptor (Homo sapiens, UniProt P00533); experiment: Inhibition of EGFR (unknown origin) by Z -LYTE assay
[2] = Half-life in human liver microsomes at 3 uM by LC-MS/MS analysis; type: ADME
in vitro = conditions: human, Caco-2
Description: Efflux ratio of permeability from basolateral to apical side over apical to basolateral side in human Caco2 cells at 10 uM by LC-MS/MS analysis

[3] = Aqueous solubility of compound in 0.01 M PBS buffer at pH 7.4 after 2 hrs by turbidimetric assay; type: physicochemical
[4] = Intrinsic clearance in human liver microsomes at 3 uM by LC-MS/MS analysis; type: ADME; conditions: read-out: CLH
Danio rerio [5] = species on record: Danio rerio; experiment: Toxicity in zebrafish embryo assessed as blood circulation defects; type: organism-based; conditions: in vivo
Danio rerio [6] = experiment: Toxicity in zebrafish embryo assessed as cardiac oedema; type: organism-based; conditions: in vivo
[7] = Toxicity in zebrafish embryo assessed as survival for 3.5 days; type: organism-based, Danio rerio; conditions: in vivo
[8] = Toxicity in zebrafish embryo assessed as morphological defects for 3.5 days; type: organism-based, Danio rerio
Danio rerio [9] = species on record: Danio rerio; experiment: Toxicity in zebrafish embryo assessed mortality after 50 to 70 hrs; type: organism-based; conditions: in vivo
Danio rerio [10] = species on record: Danio rerio; experiment: Toxicity in zebrafish embryo assessed as kinked tail; type: organism-based; conditions: in vivo
Danio rerio [11] = species on record: Danio rerio; experiment: Toxicity in zebrafish embryo assessed mortality measured for 24 hrs; type: organism-based; conditions: in vivo
Danio rerio [12] = species on record: Danio rerio; experiment: Toxicity in zebrafish embryo assessed as effect on morphology at <12.5 uM; type: organism-based; conditions: in vivo

Chain of Epidermal growth factor receptor (P00533 whole entry): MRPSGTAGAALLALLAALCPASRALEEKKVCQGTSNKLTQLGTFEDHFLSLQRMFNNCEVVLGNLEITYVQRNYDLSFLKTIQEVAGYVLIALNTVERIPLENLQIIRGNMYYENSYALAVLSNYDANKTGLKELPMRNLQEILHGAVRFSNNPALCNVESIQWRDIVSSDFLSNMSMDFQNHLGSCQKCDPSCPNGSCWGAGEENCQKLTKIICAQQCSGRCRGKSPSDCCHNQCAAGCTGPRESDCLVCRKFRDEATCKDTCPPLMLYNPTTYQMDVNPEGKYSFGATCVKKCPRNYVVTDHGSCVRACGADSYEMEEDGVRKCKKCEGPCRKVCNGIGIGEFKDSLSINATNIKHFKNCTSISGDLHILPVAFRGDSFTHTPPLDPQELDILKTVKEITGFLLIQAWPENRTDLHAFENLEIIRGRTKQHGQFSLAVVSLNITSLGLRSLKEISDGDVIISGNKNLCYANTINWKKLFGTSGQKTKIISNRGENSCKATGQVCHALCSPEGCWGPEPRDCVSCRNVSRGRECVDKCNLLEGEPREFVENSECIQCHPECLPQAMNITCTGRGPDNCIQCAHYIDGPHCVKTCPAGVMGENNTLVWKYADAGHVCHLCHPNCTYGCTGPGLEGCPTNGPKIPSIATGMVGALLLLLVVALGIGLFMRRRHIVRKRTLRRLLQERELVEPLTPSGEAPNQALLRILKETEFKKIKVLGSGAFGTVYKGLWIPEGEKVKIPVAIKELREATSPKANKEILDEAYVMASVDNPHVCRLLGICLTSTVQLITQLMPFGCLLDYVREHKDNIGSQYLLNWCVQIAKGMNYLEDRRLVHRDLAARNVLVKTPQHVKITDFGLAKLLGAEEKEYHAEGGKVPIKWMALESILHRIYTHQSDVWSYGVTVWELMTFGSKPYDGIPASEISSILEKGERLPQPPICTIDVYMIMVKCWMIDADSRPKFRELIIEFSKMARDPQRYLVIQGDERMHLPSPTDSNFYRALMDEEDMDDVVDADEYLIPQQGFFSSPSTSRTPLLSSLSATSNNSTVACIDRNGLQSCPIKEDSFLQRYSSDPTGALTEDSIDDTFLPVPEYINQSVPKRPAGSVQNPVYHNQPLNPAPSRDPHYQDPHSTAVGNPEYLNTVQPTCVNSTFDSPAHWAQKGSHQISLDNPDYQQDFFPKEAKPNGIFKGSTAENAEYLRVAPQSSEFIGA

Row | Structure (SMILES) | IC50 [1] [nM] | other results
1 | COc1ccc(CO)cc1-c1cc2c(N[C@H](C)c3ccccc3)ncnc2s1 | 5 | 
2 | OCc1cccc(-c2cc3c(N[C@H](CO)c4ccccc4)ncnc3s2)c1 | 3 | 
3 | OCc1ccc(-c2cc3c(Nc4ccccc4)ncnc3s2)cc1 | 21 | 
4 | COc1cc(C=O)ccc1-c1cc2c(Nc3ccc(F)c(Cl)c3)ncnc2s1 | 5 | 
5 | C[C@@H](Nc1ncnc2sc(-c3cccc(C=O)c3)cc12)c1ccccc1 | 6 | 
6 | C[C@@H](Nc1ncnc2sc(-c3ccc(C(=O)O)cc3)cc12)c1ccccc1 | 19 | 
7 | COc1cc(F)ccc1-c1cc2c(N[C@H](C)c3ccccc3)ncnc2s1 | 6 | 
8 | COc1c(C(=O)NCCN(C)C)cccc1-c1cc2c(N[C@H](C)c3ccccc3)ncnc2s1 | 3 | 
9 | COc1cc(C(N)=O)ccc1-c1cc2c(N[C@H](C)c3ccccc3)ncnc2s1 | 2 | 
10 | C[C@@H](Nc1ncnc2sc(-c3cccc(C(=O)NCCN(C)C)c3)cc12)c1ccccc1 | 0.9 | half-life at 3 µM [2]: 1.58 h; efflux ratio at 10 µM (in vitro): 8.9; solubility kinetic at 2 h [3]: > 100 µM
11 | COC(=O)c1ccc(-c2cc3c(N[C@H](C)c4ccccc4)ncnc3s2)c(OC)c1 | 20 | 
12 | COc1c(CO)cccc1-c1cc2c(N[C@H](C)c3ccccc3)ncnc2s1 | 1.5 | 
13 | COC(=O)c1cccc(-c2cc3c(N[C@H](C)c4ccccc4)ncnc3s2)c1OC | 9 | 
14 | COC(=O)c1ccc(OC)c(-c2cc3c(N[C@H](C)c4ccccc4)ncnc3s2)c1 | 7 | 
15 | C[C@@H](Nc1ncnc2sc(-c3ccc(CO)cc3F)cc12)c1ccccc1 | 13 | 
16 | COc1cc(C=O)ccc1-c1cc2c(NCc3ccccc3)ncnc2s1 | 6 | 
17 | COc1c(C=O)cccc1-c1cc2c(N[C@H](C)c3ccccc3)ncnc2s1 | 21 | 

Row | Structure (SMILES) | IC50 [1] [nM] | other results
18 | COc1cc(C(=O)NCCN(C)C)ccc1-c1cc2c(N[C@H](C)c3ccccc3)ncnc2s1 | 0.5 | half-life at 3 µM [2]: 3.78 h; efflux ratio at 10 µM (in vitro): 18; solubility kinetic at 2 h [3]: > 100 µM; microsomal CLint at 3 µM [4]: 6.1 µL/min/mg
19 | COc1cc(CO)ccc1-c1cc2c(NCc3ccccc3)ncnc2s1 | 5 | 
20 | OC[C@@H](Nc1ncnc2sc(-c3ccccc3)cc12)c1ccccc1 | 9 | 
21 | COc1ccc(C=O)cc1-c1cc2c(N[C@H](C)c3ccccc3)ncnc2s1 | 3 | 
22 | C[C@@H](Nc1ncnc2sc(-c3ccc(C(N)=O)cc3)cc12)c1ccccc1 | 7 | 
23 | COC(=O)c1cc(OC)c(-c2cc3c(N[C@H](C)c4ccccc4)ncnc3s2)c(OC)c1 | 4 | 
24 | C[C@@H](Nc1ncnc2sc(-c3cccc(C(N)=O)c3)cc12)c1ccccc1 | 5 | 
25 | COc1cccc(OC)c1-c1cc2c(N[C@H](CO)c3ccccc3)ncnc2s1 | 0.9 | Activity (Danio rerio [5]): Toxic; Activity (Danio rerio [6]): Toxic; LC50 at 84 h [7]: 18000 nM; half-life at 3 µM [2]: 0.567 h; EC50 at 3.5 days [8]: 12000 nM; Activity (Danio rerio [9]): Toxic; Activity (Danio rerio [10]): Toxic; microsomal CLint at 3 µM [4]: 41 µL/min/mg
26 | OCc1ccc(-c2cc3c(NCc4ccccc4)ncnc3s2)cc1 | 48 | 
27 | COc1cccc(-c2cc3c(N[C@H](C)c4ccccc4)ncnc3s2)c1OC | 13 | 
28 | COc1cccc(OC)c1-c1cc2c(N[C@H](C)c3ccccc3)ncnc2s1 | 2 | 
29 | COc1cc(C(=O)NCCN(C)C)cc(OC)c1-c1cc2c(N[C@H](C)c3ccccc3)ncnc2s1 | 0.4 | Activity (Danio rerio [11]): Toxic; LC50 at 84 h [7]: 15000 nM; half-life at 3 µM [2]: 2.37 h; efflux ratio at 10 µM (in vitro): 40; Activity (Danio rerio [12]): Non-toxic; solubility kinetic at 2 h [3]: 65 µM (≈ 32.9 µg/mL); microsomal CLint at 3 µM [4]: 9.7 µL/min/mg
30 | C[C@@H](Nc1ncnc2sc(-c3cccc(S(C)(=O)=O)c3)cc12)c1ccccc1 | 26 | 
31 | C[C@@H](Nc1ncnc2sc(-c3ccc(S(C)(=O)=O)cc3)cc12)c1ccccc1 | 41 | 
32 | C[C@@H](Nc1ncnc2sc(-c3cccc(C(=O)O)c3)cc12)c1ccccc1 | 8 | 
33 | C[C@@H](Nc1ncnc2sc(-c3ccc(C=O)cc3F)cc12)c1ccccc1 | 59 | 
